These results are taken from ChEMBL document CHEMBL4130472, “Synthesis of naphthazarin derivatives and identification of novel thioredoxin reductase inhibitor as potential anticancer agent” (Eur J Med Chem, 2017).

The subject of assay [1] is HL-60. The assay is described as follows: Cytotoxicity in human HL60 cells assessed as cell viability at 20 uM incubated for 48 hrs by MTT assay. Type of assay: functional. As to conditions: HL-60, 48 h, read-out: Activity. A general note: Tetrazolium assays rely on reduction of a dye to a coloured formazan, in cell work by metabolically active cells.
Assay [2] concerns HL-60. The assay is described as follows: Cytotoxicity in human HL60 cells assessed as reduction in cell viability incubated for 48 hrs by MTT assay. Type of assay: functional, cell-based. To be noted: HL-60, 48 h.
Assay [3] has as its system HL-60. Kind of assay: Cytotoxicity in human HL60 cells assessed as reduction in cell viability incubated for 72 hrs by MTT assay. Type of assay: functional, cell-based. As to conditions: HL-60, 72 h.

For `CCCNC1=CC(=O)c2c(O)ccc(O)c2C1=O`, the viability at 20 µM in the assay on HL-60 [1] was found to be 59.4%. Same read-out and setting: with `CCCCNC1=CC(=O)c2c(O)ccc(O)c2C1=O` the figure was 59.2%; with `CCNC1=CC(=O)c2c(O)ccc(O)c2C1=O`, 56.4%. Same read-out and setting: with `O=C1C=C(Nc2ccccc2)C(=O)c2c(O)ccc(O)c21` the figure was 59.7%; with `O=C1C=C(N2CCCCC2)C(=O)c2c(O)ccc(O)c21`, 54.9%. Still for that read-out and setting: with `O=C1C=C(NCCO)C(=O)c2c(O)ccc(O)c21` the figure was 50.3%; with `O=C1C=C(NCc2ccccc2)C(=O)c2c(O)ccc(O)c21`, 54.6%. As to `CNC1=CC(=O)c2c(O)ccc(O)c2C1=O`, the viability at 20 µM with HL-60 [1] was 63%. As to `O=C1C=C(N2CCOCC2)C(=O)c2c(O)ccc(O)c21`, the viability at 20 µM with HL-60 [1] stood at 50.1%. On the same count and under the same terms, with `CCCCCCCCNC1=CC(=O)c2c(O)ccc(O)c2C1=O` the figure was 61.1%; with `O=C1C=CC(=O)c2c(Cl)ccc(O)c21`, 23.1%; with `O=C1C=C(N2CCCC2)C(=O)c2c(O)ccc(O)c21`, 97.2%. Same read-out and setting: with `CCC(C)NC1=CC(=O)c2c(O)ccc(O)c2C1=O` (configuration not stated) the figure was 57%; with `CC(C)CCNC1=CC(=O)c2c(O)ccc(O)c2C1=O`, 54.3%. For orientation: IC50 means the concentration that inhibits the measured activity by half. Regarding `O=C1C=CC(=O)c2c(O)ccc(O)c21` [NAPHTHAZALIN], the viability at 20 µM with HL-60 [1] worked out at 0%. Moreover, the IC50 with HL-60 [2] amounted to 930 nM; in the assay on HL-60 [3], 800 nM.
